This passage reports inhibition results from patent publication US20230322722A1, “MODULATORS OF MYC FAMILY PROTO-ONCOGENE PROTEIN” (Nalo Therapeutics, priority 2020, published 2023).

As usually defined, the inhibition is how much of the control response was suppressed.

For one test, the target named is T1, MycN protein (n-myc) (Homo sapiens, UniProt P04198).
T1 construct: either 2×10^6 of L-363 (human leukemia cell line) or SKNBE2 (neuroblastoma cell line) cells; endogenous in cells; host or cells: SKNBE2 / SK-N-BE(2) neuroblastoma cells
T1 sequence (P04198 1-464): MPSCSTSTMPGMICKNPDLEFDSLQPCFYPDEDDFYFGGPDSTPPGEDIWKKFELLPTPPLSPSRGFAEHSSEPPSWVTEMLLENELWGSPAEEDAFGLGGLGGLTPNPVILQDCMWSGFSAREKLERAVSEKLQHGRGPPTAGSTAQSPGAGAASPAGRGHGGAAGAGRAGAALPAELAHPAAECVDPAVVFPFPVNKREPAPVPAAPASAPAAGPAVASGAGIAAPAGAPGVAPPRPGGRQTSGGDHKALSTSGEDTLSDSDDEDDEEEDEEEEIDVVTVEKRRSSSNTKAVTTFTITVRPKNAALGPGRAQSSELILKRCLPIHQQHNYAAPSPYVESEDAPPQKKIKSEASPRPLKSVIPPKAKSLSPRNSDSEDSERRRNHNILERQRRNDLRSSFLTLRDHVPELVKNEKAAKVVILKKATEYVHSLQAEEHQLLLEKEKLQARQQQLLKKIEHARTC
The experiment in a line: Degradation of MycN protein, 24 h treatment, JESS Western, SK-N-BE(2) cells (Example 161). It counts as cell-based. As to conditions: SKNBE2 cells. How it is done: (§1) For L363 cells (suspension), 1E6 cells were plated into each well of a 6 well plate. For SK-N-BE(2) cells (adherent), 5E5 cells were plated into each well of a 6 well dish. […] All compounds were diluted to 10 mM in DMSO. Cells were treated with the compound for 24 hrs, then for both cell types, media containing cells were removed from wells into a 15 ml centrifuge tube, and remaining adherent SK-N-BE(2) cells were also scraped from the wells into the appropriate tubes. Tubes were centrifuged, cells were washed with PBS then re-centrifuged to pellet cells. A RIPA buffer cocktail was added to the cells on ice for 5 mins. Cell lysates were clarified by centrifugation and stored at −80 degrees until required. BCA assay was performed on each lysate to determine the protein concentration.
(§2) For validation studies of antibodies, lysates and antibodies were used at a number of concentrations (Lysates: 2, 1, 0.2 mg/ml; Antibodies: 1 in 50, 1 in 200 dilution). Once an appropriate lysate concentration and antibody concentration was determined, samples were screened in the JESS technology (Protein Simple, San Jose, CA—https://www.proteinsimple.com/jess.html).
(§3) Target protein antibodies (n-myc and c-myc) were detected in the chemi-luminescence channel and loading controls (tubulin and GAPDH) were detected using a Near Infra Red (NIR) labeled secondary antibody.
(§4) For SK-N-EB2 adherent cells, 5E5 cells in 1.9 mls media were plated into 6 well dishes and incubated for 24 hrs. […] Cells were scrapped off the plate, centrifuged, washed with PBS, centrifuged, then a RIPA buffer cocktail added to the cells (100 ul), centrifuged and stored at −80 for later analysis. For L363 suspension cells, 1E6 cells were plated into […] (950 ul media) and incubated for 24 hrs. […] Cells were aspirated into tubes, centrifuged, washed with PBS, centrifuged, then a RIPA buffer cocktail added to the cells (100 ul), centrifuged and stored at −80 for later analysis.
(§5) For Western blot, a BCA (total protein) assay was run on all samples, these were then run in batches of 5 compounds plus control (DMSO) on each Western blot run—n-myc and c-myc were run in separate experiments in the chemiluminescence channel. Both tubulin and GAPDH were run as loading controls in all lanes in the near infra red channel.

A further test concerns the target T2, MycC protein (c-myc) (Homo sapiens, UniProt P01106).
T2 construct: either 2×10^6 of L-363 (human leukemia cell line) cells; endogenous in cells; host or cells: L-363 / L363 human leukemia cells
The experiment in a line: Degradation of MycC protein, 24 h treatment, JESS Western, L363 cells (Example 161). It counts as cell-based. The conditions noted are these: L-363 cells. The method, then: as §1, §2, §3, §4, §5

T2 sequence (P01106 whole entry): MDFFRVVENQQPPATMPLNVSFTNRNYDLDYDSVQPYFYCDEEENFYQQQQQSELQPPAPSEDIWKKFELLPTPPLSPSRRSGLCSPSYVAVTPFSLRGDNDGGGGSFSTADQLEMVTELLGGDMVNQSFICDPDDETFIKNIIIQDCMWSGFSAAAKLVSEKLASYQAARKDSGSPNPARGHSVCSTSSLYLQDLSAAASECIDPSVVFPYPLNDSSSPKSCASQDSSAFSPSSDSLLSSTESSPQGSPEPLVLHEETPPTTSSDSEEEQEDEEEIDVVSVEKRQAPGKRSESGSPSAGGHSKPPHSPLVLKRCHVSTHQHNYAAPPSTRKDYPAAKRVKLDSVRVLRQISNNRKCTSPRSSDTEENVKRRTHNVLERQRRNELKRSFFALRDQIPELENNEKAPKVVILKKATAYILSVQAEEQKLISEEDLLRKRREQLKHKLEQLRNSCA

On to `CN1CC2(CC(Nc3nccc(Nc4cc(C5CC5)[nH]n4)n3)C2)C1` [Compound 16, N4-(5-Cyclopropyl-1H-pyrazol-3-yl)-N2-(2-methyl-2-azaspiro[3.3]heptan-6-yl)pyrimidine-2,4-diamine], for which, at MycN protein (n-myc), the inhibition at 0.5 µM lay in the range of 20 to 49%, the inhibition at 1 µM was 20 to 49%, the inhibition at 3 µM lay within 80 to 100% and the inhibition at 6 µM fell in the range of 80 to 100%. At MycC protein (c-myc), this molecule showed an inhibition at 0.5 µM of 50 to 79%, an inhibition at 1 µM of 80 to 100%, an inhibition at 3 µM of 80 to 100% and an inhibition at 6 µM of 80 to 100%.
At MycN protein (n-myc), `CN(c1nccc(Nc2cc(C3CCCC3)[nH]n2)n1)C1CCN(C2CC2)CC1` [Compound 17, N4-(5-Cyclopentyl-1H-pyrazol-3-yl)-N2-(1-cyclopropylpiperidin-4-yl)-N2-methylpyrimidine-2,4-diamine] displayed an inhibition at 0.5 µM of under 20%, an inhibition at 1 µM of 20 to 49%, an inhibition at 3 µM of 80 to 100% and an inhibition at 6 µM of 80 to 100%. At MycC protein (c-myc), this molecule yielded an inhibition at 1 µM of 80 to 100%, an inhibition at 3 µM of 80 to 100% and an inhibition at 6 µM of 80 to 100%.
At MycN protein (n-myc), `CN(c1nccc(Nc2cc(C3CCCC3)[nH]n2)n1)C1CCNCC1` [Compound 18, N4-(5-Cyclopentyl-1H-pyrazol-3-yl)-N2-methyl-N2-(piperidin-4-yl)pyrimidine-2,4-diamine] displayed an inhibition at 1 µM of 20 to 49%, an inhibition at 3 µM of 80 to 100% and an inhibition at 6 µM of 80 to 100%. Besides, on MycC protein (c-myc), the inhibition at 1 µM lay within 80 to 100%, the inhibition at 3 µM lay in the range of 80 to 100% and the inhibition at 6 µM is 80 to 100%.
On MycN protein (n-myc), `CN(c1nccc(Nc2cc(C3CC3)[nH]n2)n1)C1CC2(C1)CN(CC1CCOCC1)C2` [Compound 20, N4-(5-Cyclopropyl-1H-pyrazol-3-yl)-N2-methyl-N2-{2-[(oxan-4-yl)methyl]-2-azaspiro[3.3]heptan-6-yl}pyrimidine-2,4-diamine] displayed an inhibition at 3 µM of 20 to 49% and an inhibition at 6 µM of 50 to 79%. Further, the inhibition at 6 µM at MycC protein (c-myc) was 80 to 100%.
With `CN(c1nccc(Nc2cc(C3CC3)[nH]n2)n1)C1CC2(C1)CN(CC1CC1)C2` [Compound 21, N4-(5-Cyclopropyl-1H-pyrazol-3-yl)-N2-(2-(cyclopropylmethyl)-2-azaspiro[3.3]heptan-6-yl)-N2-methylpyrimidine-2,4-diamine], at MycN protein (n-myc), the inhibition at 0.5 µM was under 20%, the inhibition at 1 µM lay in the range of 20 to 49%, the inhibition at 3 µM is 20 to 49% and the inhibition at 6 µM was 50 to 79%. On MycC protein (c-myc), this molecule came in with an inhibition at 1 µM of under 20%, an inhibition at 3 µM of 50 to 79% and an inhibition at 6 µM of 80 to 100%.
As for `COCCOCCN1CC2(CC(N(C)c3nccc(Nc4cc(C5CC5)[nH]n4)n3)C2)C1` [Compound 22, N4-(5-Cyclopropyl-1H-pyrazol-3-yl)-N2-(2-(2-(2-methoxyethoxy)ethyl)-2-azaspiro[3.3]heptan-6-yl)-N2-methylpyrimidine-2,4-diamine], on MycN protein (n-myc), the inhibition at 0.5 µM is under 20%, the inhibition at 1 µM was 20 to 49%, the inhibition at 3 µM was 20 to 49% and the inhibition at 6 µM was 20 to 49%.
`CN(c1nccc(Nc2cc(C3CC3)[nH]n2)n1)C1CC2(C1)CN(CC(=O)Nc1cccc(S(C)(=O)=O)c1)C2` [Compound 23, 2-(6-((4-((5-Cyclopropyl-1H-pyrazol-3-yl)amino)pyrimidin-2-yl)(methyl)amino)-2-azaspiro[3.3]heptan-2-yl)-N-(3-(methylsulfonyl)phenyl)acetamide] yielded an inhibition at 6 µM at MycN protein (n-myc) of 80 to 100%. Also, at MycC protein (c-myc), the inhibition at 0.5 µM was under 20%, the inhibition at 1 µM lay within 50 to 79%, the inhibition at 3 µM fell in the range of 80 to 100% and the inhibition at 6 µM lay within 80 to 100%.
`CN(c1nccc(Nc2cc(C3CC3)[nH]n2)n1)C1CC2(C1)CN(CC(=O)Nc1ccc(S(C)(=O)=O)cc1)C2` [Compound 24, 2-(6-((4-((5-Cyclopropyl-1H-pyrazol-3-yl)amino)pyrimidin-2-yl)(methyl)amino)-2-azaspiro[3.3]heptan-2-yl)-N-(4-(methylsulfonyl)phenyl)acetamide] returned an inhibition at 6 µM at MycC protein (c-myc) of 80 to 100%.
On MycN protein (n-myc), `CN(c1nccc(Nc2cc(C3CC3)[nH]n2)n1)C1CC2(C1)CN(Cc1ccccc1F)C2` [Compound 25, N4-(5-Cyclopropyl-1H-pyrazol-3-yl)-N2-(2-(2-fluorobenzyl)-2-azaspiro[3.3]heptan-6-yl)-N2-methylpyrimidine-2,4-diamine] had an inhibition at 3 µM of under 20% and an inhibition at 6 µM of under 20%. Moreover, at MycC protein (c-myc), the inhibition at 0.5 µM is 20 to 49% and the inhibition at 1 µM is 20 to 49%.
In the case of `CN(c1nccc(Nc2cc(C3CC3)[nH]n2)n1)C1CC2(C1)CN(Cc1cc(F)cc(F)c1)C2` [Compound 26, N4-(5-Cyclopropyl-1H-pyrazol-3-yl)-N2-(2-(3,5-difluorobenzyl)-2-azaspiro[3.3]heptan-6-yl)-N2-methylpyrimidine-2,4-diamine], on MycN protein (n-myc), the inhibition at 1 µM was under 20% and the inhibition at 6 µM was 20 to 49%. In addition, on MycC protein (c-myc), the inhibition at 1 µM is under 20%, the inhibition at 3 µM is under 20% and the inhibition at 6 µM lay in the range of 80 to 100%.
At MycN protein (n-myc), `CN(c1nccc(Nc2cc(C3CC3)[nH]n2)n1)C1CC2(C1)CN(Cc1cccc(OC(F)(F)F)c1)C2` [Compound 27, N4-(5-Cyclopropyl-1H-pyrazol-3-yl)-N2-methyl-N2-(2-(3-(trifluoromethoxy)benzyl)-2-azaspiro[3.3]heptan-6-yl)pyrimidine-2,4-diamine] registered an inhibition at 0.5 µM of 20 to 49%, an inhibition at 1 µM of 20 to 49% and an inhibition at 6 µM of under 20%. At MycC protein (c-myc), the inhibition at 0.5 µM is under 20%, the inhibition at 1 µM was in the range of 20 to 49%, the inhibition at 3 µM lay in the range of 50 to 79% and the inhibition at 6 µM lay in the range of 80 to 100%.
Molecule `CN(c1nccc(Nc2cc(C3CC3)[nH]n2)n1)C1CC2(C1)CN(Cc1cccc(S(C)(=O)=O)c1)C2` [Compound 28, N4-(5-Cyclopropyl-1H-pyrazol-3-yl)-N2-methyl-N2-(2-(3-(methylsulfonyl)benzyl)-2-azaspiro[3.3]heptan-6-yl)pyrimidine-2,4-diamine] had an inhibition at 6 µM at MycN protein (n-myc) of 20 to 49%. In addition, at MycC protein (c-myc), the inhibition at 3 µM lay in the range of 80 to 100% and the inhibition at 6 µM was in the range of 80 to 100%.
On to `CN1CCN(C(=O)CN2CC3(CC(N(C)c4nccc(Nc5cc(C6CC6)[nH]n5)n4)C3)C2)CC1` [Compound 30, 2-(6-((4-((5-Cyclopropyl-1H-pyrazol-3-yl)amino)pyrimidin-2-yl)(methyl)amino)-2-azaspiro[3.3]heptan-2-yl)-1-(4-methylpiperazin-1-yl)ethan-1-one], for which, at MycC protein (c-myc), the inhibition at 0.5 µM is 20 to 49%, the inhibition at 1 µM was 20 to 49%, the inhibition at 3 µM was under 20% and the inhibition at 6 µM is under 20%.
Turning to `CN(c1nccc(Nc2cc(C3CC3)[nH]n2)n1)C1CC2(C1)CN(S(=O)(=O)c1cn3c(n1)CCCC3)C2` [Compound 36, N4-(5-Cyclopropyl-1H-pyrazol-3-yl)-N2-methyl-N2-(2-((5,6,7,8-tetrahydroimidazo[1,2-a]pyridin-2-yl)sulfonyl)-2-azaspiro[3.3]heptan-6-yl)pyrimidine-2,4-diamine], on MycN protein (n-myc), the inhibition at 1 µM was under 20%, the inhibition at 3 µM is under 20% and the inhibition at 6 µM is under 20%.
